“And” between values parts separate entries of the source, which are not always exact repeats. Equal values may be shown once. Starred links: 1 amine or outer side, 2 acyl side, 3 side chain; linkers in the order of their positions; H or OH if unused. Non-standard residues stand in square brackets, D forms with d. Groups on a side chain read outwards from the residue. No end group written: not given here. *: point of attachment. C20 diacid = O=C(O)CCCCCCCCCCCCCCCCCCC(=O)*; γGlu = O=C(O)[C@H](CCC(=O)[*:2])N[*:1]; AEEA = NCCOCCOCC(=O)O; Aib = CC(C)(N)C(=O)O
Assays:
pancreatic islets = test: Pancreatic islet perifusion, insulin secretion; settings: ex vivo perifusion, male mice, iAUC; GLP-1 300 pM, GIP 3 nM (after 1 μM Ex9), tirzepatide 1 nM
[1] = native ligand, during meal induced incretin secretion; cited from earlier work
SNAP-tagged GLP-1R = biological target: T1, SNAP-tagged GLP-1R (Homo sapiens, UniProt P43220); test: Real-time internalization assay, SNAP-tagged receptor; type: cell-based; settings: HEK293; read-out: internalization of SNAP-tagged GLP-1R, Emax relative to GLP-1
T1 construct: expressed in transfected cells
T1 sequence (P43220 24-463): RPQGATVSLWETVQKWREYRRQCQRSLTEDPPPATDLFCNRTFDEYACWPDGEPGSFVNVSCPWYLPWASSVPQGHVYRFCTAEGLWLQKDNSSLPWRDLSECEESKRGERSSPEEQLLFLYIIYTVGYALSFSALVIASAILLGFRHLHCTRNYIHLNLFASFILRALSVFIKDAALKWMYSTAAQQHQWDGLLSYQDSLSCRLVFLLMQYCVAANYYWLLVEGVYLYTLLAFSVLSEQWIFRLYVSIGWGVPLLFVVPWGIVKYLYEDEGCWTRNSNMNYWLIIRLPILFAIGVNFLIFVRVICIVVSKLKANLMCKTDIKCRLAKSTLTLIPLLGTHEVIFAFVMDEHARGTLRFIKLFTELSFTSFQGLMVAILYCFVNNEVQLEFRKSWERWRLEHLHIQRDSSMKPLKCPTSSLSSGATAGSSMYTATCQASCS

GLP-1R [2] = biological target: T2, GLP-1R (Homo sapiens, UniProt P43220); test: On-cell Western internalization assay, HA-GLP-1R-EGFP HEK293; type: cell-based; design: expressed in transfected cells; settings: HEK293, surface GLP-1R 30 minutes after ligand, normalized to 1 μM GLP-1(7-36); mean (SEM, n); read-out: GLP-1R internalization, maximum effect relative to GLP-1
T2 sequence (P43220 24-463): as above
Method: For receptor internalization studies, DNA encoding human GIPR and GLP-1R with N-terminal 3X-HA epitope tags and C-terminal EGFP tags was constructed in pcDNA3.1.
HEK293 cells stably expressing HA-GIPR-EFGP or HA–GLP-1R–EFGP clones were plated into poly-D-lysine–coated 96-well microplates and cultured until cells reached 80%–90% confluency. On the day of assay, growth media was removed, and cells were rinsed once with prewarmed starvation media (growth media without serum or antibiotics, supplemented with 0.1% casein) and equilibrated with fresh media for 1 hour at 37°C, 5% CO2. […] Fixative was removed, and cells were washed in PBS and blocked with Odyssey blocking buffer (Licor) for 1 hour.

GLP-1R [3] = biological target: T2, GLP-1R; test: ARRB2 recruitment, CHO-K1 PathHunter enzyme fragment complementation; type: cell-based
Method: ARRB2 recruitment to human GIPR and GLP-1R was quantified in CHO-K1 PathHunter cells expressing C-terminally fused ProLink1 receptors and Enzyme Acceptor fused ARRB2 from DiscoverX (Eurofins). […] Cell vials were thawed and added at equal volume in respective assay medium as previously stated. Recruitment of ARRB2 to activated receptors occurred at 37°C for 90 minutes, followed by cell lysis by the addition of 10 μL detection mixture containing β-galactosidase 93-0001 substrate to quantitate functional enzyme fragment complementation. Chemiluminescent signal was developed for 60 minutes at room temperature and quantified using an EnVision plate reader. Raw data were normalized to percent activation compared with control wells, and the curves were fit to the 4-parameter logistic model in Genedata Screener. As an alternative approach to measure β-arrestin recruitment, bioluminescent resonance energy transfer (BRET) was performed. […] Freestyle HEK cells (R79007, Thermo Fisher Scientific) were transfected in antibiotic-free media using Fugene-6 complexed in optiMEM (Thermo Fisher Scientific). […] Emission was measured at 460 nm (donor) and 610 nm (acceptor) wavelengths. The BRET ratio was calculated as acceptor emission divided by donor emission. […] Agonist-stimulated protein-to-protein interaction of 2 fusion molecules were detected with Nano-Glo substrate and standard luminescent detection. […]

[4] = biological target: mouse GLP-1R–LgBiT (mouse) (UniProt O35659)
mouse GLP-1R–LgBiT (mouse), sequence (O35659 22-463): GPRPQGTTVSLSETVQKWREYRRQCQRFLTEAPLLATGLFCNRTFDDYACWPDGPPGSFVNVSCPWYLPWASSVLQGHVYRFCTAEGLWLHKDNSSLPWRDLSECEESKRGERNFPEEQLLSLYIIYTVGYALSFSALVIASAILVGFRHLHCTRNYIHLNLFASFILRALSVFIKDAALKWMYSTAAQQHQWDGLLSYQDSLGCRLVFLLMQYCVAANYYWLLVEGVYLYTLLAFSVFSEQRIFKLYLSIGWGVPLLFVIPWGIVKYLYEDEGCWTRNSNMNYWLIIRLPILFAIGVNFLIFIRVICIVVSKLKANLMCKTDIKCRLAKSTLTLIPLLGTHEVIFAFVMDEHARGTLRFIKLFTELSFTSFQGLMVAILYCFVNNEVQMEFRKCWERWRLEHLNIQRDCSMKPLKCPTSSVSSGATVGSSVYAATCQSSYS

[5] = rodents, acute glucose challenge; read-out: in vivo EC50; cited from earlier work
Source text: (§1) We recognize that calculating pRO values has caveats (see Methods) and propose its use mainly for generating hypotheses and as a tool to probe mechanistic biology. For perspective, though, when examining the pRO values of other ligands, we observe that GLP-1R occupancy is also relatively low (about 10%). Based on established data, this makes sense in terms of the in vivo sensitivity of the GLP-1R system. […] In humans, active GLP-1 and GI ...

GLP-1R [6] = settings: read-out: in vitro EC50; cited from earlier work
Source text: as §1

[7] = biological target: T3, human GIP receptor (GIPR) (human, UniProt P48546-1 22-466); test: cell-based or functional assay
T3 sequence (looked up): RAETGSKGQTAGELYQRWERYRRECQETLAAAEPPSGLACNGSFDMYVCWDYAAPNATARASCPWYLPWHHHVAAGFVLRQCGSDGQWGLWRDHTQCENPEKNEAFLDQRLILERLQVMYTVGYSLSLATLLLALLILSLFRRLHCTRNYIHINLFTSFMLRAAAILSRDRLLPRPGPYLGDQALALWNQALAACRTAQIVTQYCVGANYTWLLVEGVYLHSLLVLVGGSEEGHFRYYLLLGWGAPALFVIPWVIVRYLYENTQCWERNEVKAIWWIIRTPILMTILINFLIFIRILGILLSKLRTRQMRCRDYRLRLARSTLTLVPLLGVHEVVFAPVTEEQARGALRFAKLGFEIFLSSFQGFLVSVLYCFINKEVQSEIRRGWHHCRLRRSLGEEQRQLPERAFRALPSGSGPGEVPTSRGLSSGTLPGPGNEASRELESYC

[8] = biological target: T3, human GIP receptor (GIPR); test: radioligand binding; competition with [125I]GIP(1-42)OH (GIPR) or [125I]GLP-1(7-36)NH2 (GLP-1R), ~0.12–0.20 nM, on membranes of HEK293 cells expressing the human receptor held on WGA-PVT SPA beads; 1.0 mM MgCl2, 2.5 mM CaCl2, 0.003% w/v Tween-20, 0.1% w/v bacitracin, 25 mM HEPES pH 7.4; 18 hours at room temperature; Ki by the Cheng-Prussoff correction; settings: one partner purified
[9] = biological target: T3, human GIP receptor (GIPR); test: radioligand binding; settings: one partner purified

With CC[C@H](C)[C@H](NC(=O)[C@H](CO)NC(=O)[C@H](Cc1ccc(O)cc1)NC(=O)[C@H](CC(=O)O)NC(=O)[C@H](CO)NC(=O)[C@@H](NC(=O)[C@H](Cc1ccccc1)NC(=O)[C@@H](NC(=O)CNC(=O)[C@H](CCC(=O)O)NC(=O)[C@H](C)NC(=O)[C@@H](N)Cc1ccc(O)cc1)[C@@H](C)O)[C@@H](C)CC)C(=O)N[C@@H](C)C(=O)N[C@@H](CCSC)C(=O)N[C@@H](CC(=O)O)C(=O)N[C@@H](CCCCN)C(=O)N[C@H](C(=O)N[C@@H](Cc1c[nH]cn1)C(=O)N[C@@H](CCC(N)=O)C(=O)N[C@@H](CCC(N)=O)C(=O)N[C@@H](CC(=O)O)C(=O)N[C@@H](Cc1ccccc1)C(=O)N[C@H](C(=O)N[C@@H](CC(N)=O)C(=O)N[C@@H](Cc1c[nH]c2ccccc12)C(=O)N[C@@H](CC(C)C)C(=O)N[C@@H](CC(C)C)C(=O)N[C@@H](C)C(=O)N[C@@H](CCC(N)=O)C(=O)N[C@@H](CCCCN)C(=O)NCC(=O)N[C@@H](CCCCN)C(=O)N[C@@H](CCCCN)C(=O)N[C@@H](CC(N)=O)C(=O)N[C@@H](CC(=O)O)C(=O)N[C@@H](Cc1c[nH]c2ccccc12)C(=O)N[C@@H](CCCCN)C(=O)N[C@@H](Cc1c[nH]cn1)C(=O)N[C@@H](CC(N)=O)C(=O)N[C@H](C(=O)N[C@H](C(=O)N[C@@H](CCC(N)=O)C(N)=O)[C@@H](C)O)[C@@H](C)CC)C(C)C)[C@@H](C)CC [GIP(1-42), GIP(1-42)NH2] the “insulin secretion of Arrb1βcell–/– islets compared with control islets” value (pancreatic islets) was “not different”.

In the case of CC[C@H](C)[C@H](NC(=O)[C@H](Cc1ccccc1)NC(=O)[C@H](CCC(=O)O)NC(=O)[C@H](CCCCN)NC(=O)[C@H](C)NC(=O)[C@H](C)NC(=O)[C@H](CCC(N)=O)NC(=O)CNC(=O)[C@H](CCC(=O)O)NC(=O)[C@H](CC(C)C)NC(=O)[C@H](Cc1ccc(O)cc1)NC(=O)[C@H](CO)NC(=O)[C@H](CO)NC(=O)[C@@H](NC(=O)[C@H](CC(=O)O)NC(=O)[C@H](CO)NC(=O)[C@@H](NC(=O)[C@H](Cc1ccccc1)NC(=O)[C@@H](NC(=O)CNC(=O)[C@H](CCC(=O)O)NC(=O)[C@H](C)NC(=O)[C@@H](N)Cc1c[nH]cn1)[C@@H](C)O)[C@@H](C)O)C(C)C)C(=O)N[C@@H](C)C(=O)N[C@@H](Cc1c[nH]c2ccccc12)C(=O)N[C@@H](CC(C)C)C(=O)N[C@H](C(=O)N[C@@H](CCCCN)C(=O)NCC(=O)N[C@@H](CCCNC(=N)N)C(N)=O)C(C)C [GLP-1(7-36), GLP-1(7-36)NH2], the “insulin secretion of Arrb1βcell–/– islets compared with control islets” value (pancreatic islets) is given as “secreted more insulin” and the “Css (free): range of Cmax values” [1] is given as 5-15^E pM.

For CC[C@H](C)[C@H](NC(=O)[C@H](CC(C)C)NC(=O)[C@H](Cc1c[nH]c2ccccc12)NC(=O)[C@H](CCC(N)=O)NC(=O)[C@@H](NC(=O)[C@H](Cc1ccccc1)NC(=O)[C@H](C)NC(=O)[C@H](CCCCNC(=O)COCCOCCNC(=O)COCCOCCNC(=O)CC[C@H](NC(=O)CCCCCCCCCCCCCCCCCCC(=O)O)C(=O)O)NC(=O)[C@H](CCC(N)=O)NC(=O)[C@H](C)NC(=O)[C@@H](NC(=O)[C@H](CCCCN)NC(=O)[C@H](CC(=O)O)NC(=O)[C@H](CC(C)C)NC(=O)C(C)(C)NC(=O)[C@@H](NC(=O)[C@H](CO)NC(=O)[C@H](Cc1ccc(O)cc1)NC(=O)[C@H](CC(=O)O)NC(=O)[C@H](CO)NC(=O)[C@@H](NC(=O)[C@H](Cc1ccccc1)NC(=O)[C@@H](NC(=O)CNC(=O)[C@H](CCC(=O)O)NC(=O)C(C)(C)NC(=O)[C@@H](N)Cc1ccc(O)cc1)[C@@H](C)O)[C@@H](C)O)[C@@H](C)CC)[C@@H](C)CC)C(C)C)C(=O)N[C@@H](C)C(=O)NCC(=O)NCC(=O)N1CCC[C@H]1C(=O)N[C@@H](CO)C(=O)N[C@@H](CO)C(=O)NCC(=O)N[C@@H](C)C(=O)N1CCC[C@H]1C(=O)N1CCC[C@H]1C(=O)N1CCC[C@H]1C(=O)N[C@@H](CO)C(N)=O [Tirzepatide], the Emax (SNAP-tagged GLP-1R) was less than 40%, the Emax (GLP-1R [2]) was 40% and the Emax (GLP-1R [3]) was less than 10%.

For Tirzepatide (LY3298176) (peptide), the other [4] was 6.6 nM and 2.4 nM.

In the case of exendin-4, the EC50 [5] is listed as 0.04 nM and the EC50 (GLP-1R [6]) is listed as 0.26 nM.

B1: Semaglutide (peptide)
chain: HAEGTFTSDVSSYLEGQAAKEFIAWLVRGRG
modifications: Aib at the 2nd residue (written X in the letters); C18 diacid-γGlu-(AEEA)2 on the lysine at the 20th residue
For B1, the “EC50 of cAMP accumulation, HEK293 cells with low density of human GIPR (1,700 receptors/cell)” value [7] was greater than 850 nM, the “EC50 of cAMP accumulation, HEK293 cells with medium density of human GIPR (6,400 receptors/cell)” value [7] was greater than 100 nM and the Ki [8] was greater than 500 nM.

For Y[Aib]EGTFTSDYSI[Aib]LDKIAQK([AEEA-AEEA-γGlu-C20 diacid])AFVQWLIAGGPSSGAPPPS-NH2 [Tirzepatide (LY3298176)], the Ki [9] was 0.163 nM.

Reference: article PMC7526454 (JCI Insight, 2020)
